Assay results taken from patent US9353082B2, “Pharmaceutical compounds” (BIAL—PORTELA & CA, S.A., priority 2008, dated 2016).

What was measured:
[1] = target: T1, monoacylglycerol lipase (MAGL) (Rattus norvegicus, UniProt Q8R431); assay: MAGL activity in rat cerebella cytosol (CRBcyt), hydrolysis of [3H] 2-OG; format: biochemical, WISTAR rats; conditions: 12.5 uM compound, remaining MAGL activity
T1 construct: cerebella cytosol (CRBcyt) fractions, previously obtained from adult WISTAR rats; from tissue; host or cells: adult Wistar rat cerebella, cytosol fraction
T1 sequence (Q8R431 1-303): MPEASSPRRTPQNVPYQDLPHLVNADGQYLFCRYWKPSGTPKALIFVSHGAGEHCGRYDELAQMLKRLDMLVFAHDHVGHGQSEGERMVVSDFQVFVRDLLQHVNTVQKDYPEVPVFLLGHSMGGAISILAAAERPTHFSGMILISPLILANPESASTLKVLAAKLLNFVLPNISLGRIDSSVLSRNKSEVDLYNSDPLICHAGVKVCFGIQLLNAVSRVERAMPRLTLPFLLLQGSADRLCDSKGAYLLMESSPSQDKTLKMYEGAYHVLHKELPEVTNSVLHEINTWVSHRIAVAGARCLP
Protocol: (§1) FAAH inhibition was determined as described above. Inhibition of monoacylglycerol lipase (MAGL) and carboxylesterase (CE) was performed according to the protocols described below. The controls for both in vitro and in vivo were the reaction mix minus the test compounds. Therefore, a low value in Table 2 below for the test compounds indicates a strong inhibitor.
MAGL activity measurement was based on rate of hydrolysis of [^3H] 2-OG (glycerol labeled) as substrate. Briefly, cerebella cytosol (CRBcyt) fractions, previously obtained from adult WISTAR rats, were diluted to appropriate assay protein concentrations in Tris-HCl buffer (10 mM, pH 7.2) containing 1 mM EDTA, and were added to assay tubes containing test compound. Blanks contained assay buffer instead of cytosol samples were used as control. […] The final assay contained 0.125% w v^−1 fatty acid-free BSA. After the incubation phase, reactions were stopped by adding 400 μL chloroform:methanol (1/1 v v^−1), vortex mixing the tubes two times and placing them on ice. Phases were separated by centrifugation and 200 μL aliquots of the methanol/buffer phase were taken and tritium content assayed by liquid scintillation spectroscopy with quench correction.

carboxylesterase (CE) [2] = assay: Carboxylesterase (CE) activity in rat liver microsomes (LVms), p-nitrophenyl acetate; format: biochemical; conditions: 10 uM compound, read 10 min after substrate, remaining CE activity
Protocol: as §1
(§2) CE activity measurement is based on the formation of p-nitrophenol from p-nitrophenyl acetate. Briefly, in 96-well plates 8 μg/ml of rat or mouse liver microsomes (LVms) were incubated with 10 μM FAAH inhibitors for 15 min and then the substrate, p-nitrophenyl acetate, was added to a final concentration of 1 mM. The plate was read at 405 nm 10 min after substrate addition for the appearance of p-nitrophenol using a spectrophotometer. The carboxylesterase activity in microsome extracts without inhibitor added were set at 100% as control and the remaining CE activities after incubation with inhibitors were calculated relative to the control.

FAAH [3] = target: T2, FAAH (Mus musculus, UniProt O08914); assay: In vivo FAAH inhibition after oral dosing, remaining activity in liver homogenate (LVh, peripheral tissue); design: species or system NMRI mice; conditions: 3 mg/kg oral, 8 h; for FAAH LVh 3 mg · kg · 8 h: in vivo, mouse liver, remaining enzymatic activity; for In Vivo LVh 3 mg · kg · 8 h (remaining FAAH activity): liver homogenate, low value = strong inhibitor
T2 construct: A fragment of liver, left lung lobe and brain without cerebellum were removed; from tissue; host or cells: male NMRI mice; brain (without cerebellum) and liver homogenates
T2 sequence (O08914 1-579): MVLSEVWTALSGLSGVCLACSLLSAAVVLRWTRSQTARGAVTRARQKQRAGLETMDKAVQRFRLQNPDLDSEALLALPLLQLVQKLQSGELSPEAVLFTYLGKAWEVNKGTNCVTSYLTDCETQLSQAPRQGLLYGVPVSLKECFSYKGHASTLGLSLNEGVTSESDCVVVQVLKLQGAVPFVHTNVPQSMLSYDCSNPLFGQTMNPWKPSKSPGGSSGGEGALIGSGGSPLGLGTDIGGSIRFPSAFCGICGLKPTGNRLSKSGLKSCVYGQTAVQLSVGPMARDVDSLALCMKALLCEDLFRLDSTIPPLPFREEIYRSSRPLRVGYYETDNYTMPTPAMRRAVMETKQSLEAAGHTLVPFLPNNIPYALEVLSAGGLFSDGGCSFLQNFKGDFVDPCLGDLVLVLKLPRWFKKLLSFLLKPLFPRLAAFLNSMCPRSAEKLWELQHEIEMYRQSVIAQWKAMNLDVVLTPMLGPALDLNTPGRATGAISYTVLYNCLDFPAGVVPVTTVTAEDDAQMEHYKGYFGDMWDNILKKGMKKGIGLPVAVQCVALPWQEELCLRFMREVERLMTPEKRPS
Outline: (§3)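 Male NMRI mice, fasted overnight, got 30 or 3 mg/kg compound orally (0.5% CMC suspension or water) and were compared with vehicle controls. Brain (no cerebellum) and liver homogenates were incubated with 2 μM AEA plus 5 nM 3H-AEA at 37 °C, 10 min for brain and 7 min for liver. Remaining FAAH activity is % of vehicle after blank subtraction.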

FAAH [4] = target: T2, FAAH; assay: In vivo FAAH inhibition after oral dosing, remaining activity in brain homogenate (BRh, central nervous tissue); design: species or system NMRI mice; conditions: 3 mg/kg oral, 8 h; for In Vivo BRh 3 mg · kg · 8 h (remaining FAAH activity): brain homogenate, low value = strong inhibitor; for FAAH BRh 3 mg · kg · 8 h: in vivo, mouse brain, remaining enzymatic activity
Outline: as §3

carboxylesterase (CE) [5] = assay: Carboxylesterase (CE) activity in mouse liver microsomes (LVms), p-nitrophenyl acetate; format: biochemical; conditions: 10 uM compound, read 10 min after substrate, remaining CE activity
Protocol: as §1, §2

| Compound | MAGL Rat CRBcyto 12.5 uM 8 min [1] | CE Rat LVms 10 uM 10 min (carboxylesterase (CE) [2]) | FAAH LVh 3 mg · kg · 8 h (FAAH [3]) | In Vivo LVh 3 mg · kg · 8 h (remaining FAAH activity) (FAAH [3]) | In Vivo BRh 3 mg · kg · 8 h (remaining FAAH activity) (FAAH [4]) | FAAH BRh 3 mg · kg · 8 h (FAAH [4]) | CE Mou LVms 10 uM 10 min (carboxylesterase (CE) [5]) |
| --- | --- | --- | --- | --- | --- | --- | --- |
| CN(C(=O)n1cnc(-c2ccc3oc(=O)[nH]c3c2)c1)C1CCCC1 [Compound 564, N-cyclopentyl-N-methyl-4-(2-oxo-2,3-dihydrobenzo[d]oxazol-5-yl)-1H-imidazole-1-carboxamide] | 91.6 % of control | 96.1 % of control | 2.3 % of control | 2.3 % of control | 37.6 % of control | 37.6 % of control | 87.4 % of control |
| CN(C(=O)n1cnc(-c2ccc(S(C)(=O)=O)cc2)c1)C1CCN(Cc2ccccc2)CC1 [Compound 567, N-(1-benzylpiperidin-4-yl)-N-methyl-4-(4-(methylsulfonyl)phenyl)-1H-imidazole-1-carboxamide] | 94.2 % of control | 97.8 % of control | 6.3 % of control | 6.3 % of control | 87.8 % of control | 87.8 % of control | 88.6 % of control |
